The results in this text go back to patent publication US20250154105A1, “POLYCYCLIC COMPOUND AND USE THEREOF” (TYK MEDICINES, INC., priority 2021, published 2025).

pIC50: −log10 of the molar value.

The subject of assay [1] is human pleural mesothelioma cells NCI-H226. In words: Cell anti-proliferation experiment (CCK8), NCI-H226. The class given is cell-based. The gist of the method: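 Viability was measured by CCK-8 (3 h, A450) after 3-day treatment with 0.15–333.33 nM compound in 0.1% DMSO medium. Curve-fitted IC50 was based on viability normalised to no-drug and cell-free controls.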
The subject of assay [2] is YAP-TEAD. In words: YAP-TEAD inhibitor activity by Nano luciferase method (8xGTiiC-nLuc reporter in 293T cells). In kind it is cell-based. The conditions noted are these: Homo sapiens, HEK-293T, 48 hours incubation, read-out: Nano-luciferase detection (IC50). The essentials:
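293T cells transiently transfected with pGL3B-8xGTiiC-nLuc-CMV-fLuc, seeded 2000 cells/well, then treated 48 h at 37 °C with compounds in 1:3.16 dilution series (top 10,000 nM). Nano luciferase signal read after cell lysis; IC50 from percent of 0 nM control.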

Regarding `C[C@H](NC(=O)c1ccc2c(c1)c1csc(F)c1c(=O)n2-c1ccc(C(F)(F)F)cc1)c1ccccn1` [Example T-299], the pIC50 in assay [1] and in assay [2] was at least 6.00 each time.
On to `C[C@H](NC(=O)c1ccc2c(c1)c1csc(Cl)c1c(=O)n2-c1ccc(C(F)(F)F)cc1)c1ccccn1` [Example T-300], for which the pIC50 in assay [1] and in assay [2] was at least 6.00 in each case.
Take `C[C@H](NC(=O)c1ccc2c(c1)c1c(Cl)scc1c(=O)n2-c1ccc(C(F)(F)F)cc1)c1ccccn1` [Example T-301]: the pIC50 in assay [1] and in assay [2] was at least 6.00 in each case.
Take `C[C@H](NC(=O)c1ccc2c(c1)c1c(c(=O)n2-c2ccc(C(F)(F)F)cc2)CCCC1F)c1ccccn1` (stereo partly drawn) [Example T-302]: the pIC50 in assay [1] and in assay [2] was at least 6.00 in each case.
In the case of `C[C@H](NC(=O)c1ccc2c(c1)c1c(c(=O)n2-c2ccc(C(F)(F)F)cc2)CCC(F)C1)c1ccccn1` (stereo partly drawn) [Example T-303], the pIC50 in assay [1] and in assay [2] was at least 6.00 in each case.
For the molecule `C[C@H](NC(=O)c1ccc2c(c1)c1c(c(=O)n2-c2ccc(C(F)(F)F)cc2)CCCC1(F)F)c1ccccn1` [Example T-306], the pIC50 in assay [1] and in assay [2] was at least 6.00 in each case.
Turning to `C[C@H](NC(=O)c1ccc2c(c1)c1c(c(=O)n2-c2ccc(C(F)(F)F)cc2)CCC(F)(F)C1)c1ccccn1` [Example T-307], the pIC50 in assay [1] and in assay [2] was at least 6.00 in each case.
Regarding `C[C@H](NC(=O)c1ccc2c(c1)c1cc(Cl)ccc1c(=O)n2-c1ccc(C(F)(F)F)cc1)c1ccccn1` [Example T-311], the negative logarithm of the IC50 (pIC50) in assay [1] and in assay [2] was at least 6.00 in each case.
With `COc1ccc2c(=O)n(-c3ccc(C(F)(F)F)cc3)c3ccc(C(=O)N[C@@H](C)c4ccccn4)cc3c2c1` [Example T-315], the pIC50 in assay [1] and in assay [2] was at least 6.00 throughout.
With `C[C@H](NC(=O)c1ccc2c(c1)c1c(C#N)cccc1c(=O)n2-c1ccc(C(F)(F)F)cc1)c1ccccn1` [Example T-318], the negative-log IC50 (pIC50) in assay [1] and in assay [2] was at least 6.00 each time.
Regarding `C[C@H](NC(=O)c1ccc2c(c1)c1cc(C#N)ccc1c(=O)n2-c1ccc(C(F)(F)F)cc1)c1ccccn1` [Example T-319], the pIC50 in assay [1] and in assay [2] was at least 6.00 each time.
In the case of `C[C@H](NC(=O)c1ccc2c(c1)c1ccc(C#N)cc1c(=O)n2-c1ccc(C(F)(F)F)cc1)c1ccccn1` [Example T-320], the pIC50 in assay [1] and in assay [2] was at least 6.00 each time.
Regarding `C[C@H](NC(=O)c1ccc2c(c1)c1cccc(C#N)c1c(=O)n2-c1ccc(C(F)(F)F)cc1)c1ccccn1` [Example T-321], the pIC50 in assay [1] and in assay [2] was at least 6.00 in each case.
Turning to `CNS(=O)(=O)c1ccc2c(c1)c1nn(C)cc1c(=O)n2-c1cc(F)cc(F)c1` [Example T-322], the pIC50 in assay [1] and in assay [2] was at least 6.00 in each case.
As to `C=C1c2cn(C)nc2-c2cc(C(=O)N[C@@H](C)c3ccccn3)ccc2N1c1ccc(C(F)(F)F)cc1` [Example T-324], the pIC50 in assay [1] and in assay [2] was at least 6.00 in each case.
For `C[C@H](NC(=O)c1ccc2c(c1)-c1nn(C)cc1[C@@H](C)N2c1ccc(C(F)(F)F)cc1)c1ccccn1` [Example T-326], the negative-log IC50 (pIC50) in assay [1] and in assay [2] was at least 6.00 throughout.
As to `C[C@H](NC(=O)c1ccc2c(c1)-c1nn(C)cc1[C@H](C)N2c1ccc(C(F)(F)F)cc1)c1cccc(N)n1` [Example T-327], the pIC50 in assay [1] and in assay [2] was at least 6.00 in each case.
`C[C@H](NC(=O)c1ccc2c(c1)c1csnc1c(=O)n2-c1ccc(C(F)(F)F)cc1)c1ccccn1` [Example T-328]: the pIC50 in assay [1] and in assay [2] was at least 6.00 each time.
Consider `C[C@H](NC(=O)c1ccc2c(c1)c1nscc1c(=O)n2-c1ccc(C(F)(F)F)cc1)c1ccccn1` [Example T-329], for which the pIC50 in assay [1] and in assay [2] was at least 6.00 throughout.
As for `C[C@H](NC(=O)c1ccc2c(c1)c1ncsc1c(=O)n2-c1ccc(C(F)(F)F)cc1)c1ccccn1` [Example T-330], the negative-log IC50 (pIC50) in assay [1] and in assay [2] was at least 6.00 in each case.
With `C[C@H](NC(=O)c1ccc2c(c1)c1scnc1c(=O)n2-c1ccc(C(F)(F)F)cc1)c1ccccn1` [Example T-331], the pIC50 in assay [1] and in assay [2] was at least 6.00 each time.
`C[C@H](NC(=O)c1ccc2c(c1)c1ncncc1c(=O)n2-c1ccc(C(F)(F)F)cc1)c1ccccn1` [Example T-332]: the pIC50 in assay [1] and in assay [2] was at least 6.00 in each case.
Regarding `C[C@H](NC(=O)c1ccc2c(c1)c1cncnc1c(=O)n2-c1ccc(C(F)(F)F)cc1)c1ccccn1` [Example T-333], the pIC50 in assay [1] and in assay [2] was at least 6.00 each time.
Consider `C[C@H](NC(=O)c1ccc2c(c1)c1nnccc1c(=O)n2-c1ccc(C(F)(F)F)cc1)c1ccccn1` [Example T-334], for which the pIC50 in assay [1] and in assay [2] was at least 6.00 in each case.
For `C[C@H](NC(=O)c1ccc2c(c1)c1cnncc1c(=O)n2-c1ccc(C(F)(F)F)cc1)c1ccccn1` [Example T-335], the negative logarithm of the IC50 (pIC50) in assay [1] and in assay [2] was at least 6.00 each time.
`C[C@H](NC(=O)c1ccc2c(c1)c1ccnnc1c(=O)n2-c1ccc(C(F)(F)F)cc1)c1ccccn1` [Example T-336]: the pIC50 in assay [1] and in assay [2] was at least 6.00 in each case.
Turning to `C[C@H](NC(=O)c1ccc2c(c1)c1nccnc1c(=O)n2-c1ccc(C(F)(F)F)cc1)c1ccccn1` [Example T-337], the pIC50 in assay [1] and in assay [2] was at least 6.00 each time.
On to `Cc1scc2c(=O)n(-c3ccc(C(F)(F)F)cc3)c3ncc(C(=O)N[C@@H](C)c4ccccn4)cc3c12` [Example T-372], for which the pIC50 in assay [1] and in assay [2] was 5.30 to 6.00 throughout.
For the molecule `Cc1scc2c1c(=O)n(-c1ccc(C(F)(F)F)cc1)c1ncc(C(=O)N[C@@H](C)c3ccccn3)cc21` [Example T-373], the pIC50 in assay [1] and in assay [2] was 5.30 to 6.00 throughout.
For the molecule `C[C@H](NC(=O)c1cnc2c(c1)c1cocc1c(=O)n2-c1ccc(C(F)(F)F)cc1)c1ccccn1` [Example T-374], the pIC50 in assay [1] and in assay [2] was at least 6.00 throughout.
For `Cc1occ2c(=O)n(-c3ccc(C(F)(F)F)cc3)c3ncc(C(=O)N[C@@H](C)c4ccccn4)cc3c12` [Example T-375], the negative-log IC50 (pIC50) in assay [1] and in assay [2] was at least 6.00 each time.
On to `Cc1occ2c1c(=O)n(-c1ccc(C(F)(F)F)cc1)c1ncc(C(=O)N[C@@H](C)c3ccccn3)cc21` [Example T-376], for which the pIC50 in assay [1] and in assay [2] was at least 6.00 in each case.
Consider `C[C@H](NC(=O)c1cnc2c(c1)c1sccc1c(=O)n2-c1ccc(C(F)(F)F)cc1)c1ccccn1` [Example T-377], for which the pIC50 in assay [1] and in assay [2] was at least 6.00 each time.
As for `C[C@H](NC(=O)c1cnc2c(c1)c1ccsc1c(=O)n2-c1ccc(C(F)(F)F)cc1)c1ccccn1` [Example T-378], the pIC50 in assay [1] and in assay [2] was at least 6.00 in each case.
With `C[C@H](NC(=O)c1ccc2c(n1)c1cscc1c(=O)n2-c1ccc(C(F)(F)F)cc1)c1ccccn1` [Example T-384], the pIC50 in assay [1] and in assay [2] was at least 6.00 in each case.
In the case of `Cc1scc2c(=O)n(-c3ccc(C(F)(F)F)cc3)c3ccc(C(=O)N[C@@H](C)c4ccccn4)nc3c12` [Example T-385], the negative logarithm of the IC50 (pIC50) in assay [1] and in assay [2] was at least 6.00 each time.
In the case of `Cc1scc2c1c(=O)n(-c1ccc(C(F)(F)F)cc1)c1ccc(C(=O)N[C@@H](C)c3ccccn3)nc21` [Example T-386], the pIC50 in assay [1] and in assay [2] was at least 6.00 each time.
For the molecule `C[C@H](NC(=O)c1ccc2c(n1)c1c(Cl)scc1c(=O)n2-c1ccc(C(F)(F)F)cc1)c1ccccn1` [Example T-387], the pIC50 in assay [1] and in assay [2] was at least 6.00 throughout.
`C[C@H](NC(=O)c1ccc2c(n1)c1csc(Cl)c1c(=O)n2-c1ccc(C(F)(F)F)cc1)c1ccccn1` [Example T-388]: the negative-log IC50 (pIC50) in assay [1] and in assay [2] was at least 6.00 each time.
With `C[C@H](NC(=O)c1ccc2c(n1)c1cocc1c(=O)n2-c1ccc(C(F)(F)F)cc1)c1ccccn1` [Example T-389], the pIC50 in assay [1] and in assay [2] was at least 6.00 each time.
Take `C[C@H](NC(=O)c1ccc2c(c1)c1ocnc1c(=O)n2-c1ccc(C(F)(F)F)cc1)c1ccccn1` [Example T-391]: the negative logarithm of the IC50 (pIC50) in assay [1] and in assay [2] was at least 6.00 in each case.
In the case of `C[C@H](NC(=O)c1ccc2c(c1)c1nocc1c(=O)n2-c1ccc(C(F)(F)F)cc1)c1ccccn1` [Example T-395], the pIC50 in assay [1] and in assay [2] was at least 6.00 throughout.
Regarding `C[C@H](NC(=O)c1ccc2c(c1)c1ncoc1c(=O)n2-c1ccc(C(F)(F)F)cc1)c1ccccn1` [Example T-396], the pIC50 in assay [1] and in assay [2] was at least 6.00 in each case.
Consider `C[C@@H](NC(=O)c1ccc2c(c1)c1cscc1c(=O)n2-c1ccc(C(F)(F)F)cc1)c1cccc(N)n1` [Example T-397], for which the pIC50 in assay [1] and in assay [2] was at least 6.00 each time.
As to `C[C@H](NC(=O)c1cnc2c(c1)c1cscc1c(=O)n2-c1ccc(C(F)(F)F)nn1)c1ccccn1` [Example T-398], the pIC50 in assay [1] and in assay [2] was 5.30 to 6.00 in each case.
For the molecule `C[C@H](NC(=O)c1ccc2c(c1)c1ccccc1c(=O)n2-c1ccc(C(F)(F)F)cc1)c1cccc(N)n1` [Example T-399], the pIC50 in assay [1] and in assay [2] was at least 6.00 throughout.
For the molecule `C[C@H](NC(=O)c1cnc2c(c1)c1ccoc1c(=O)n2-c1ccc(C(F)(F)F)cc1)c1ccccn1` [Example T-400], the pIC50 in assay [1] and in assay [2] was at least 6.00 throughout.
With `CCn1cc2c(=O)n(-c3ccc(C(F)(F)F)cc3)c3ncc(C(=O)N[C@@H](C)c4ccccn4)cc3c2n1` [Example T-401], the pIC50 in assay [1] and in assay [2] was at least 6.00 in each case.
